# Reference: paper PMC8869475 (Biomolecules, 2022)
# Biological target: T1, Insulin-Degrading Enzyme (IDE) (Homo sapiens, UniProt P14735)
# T1 sequence (P14735 42-1019): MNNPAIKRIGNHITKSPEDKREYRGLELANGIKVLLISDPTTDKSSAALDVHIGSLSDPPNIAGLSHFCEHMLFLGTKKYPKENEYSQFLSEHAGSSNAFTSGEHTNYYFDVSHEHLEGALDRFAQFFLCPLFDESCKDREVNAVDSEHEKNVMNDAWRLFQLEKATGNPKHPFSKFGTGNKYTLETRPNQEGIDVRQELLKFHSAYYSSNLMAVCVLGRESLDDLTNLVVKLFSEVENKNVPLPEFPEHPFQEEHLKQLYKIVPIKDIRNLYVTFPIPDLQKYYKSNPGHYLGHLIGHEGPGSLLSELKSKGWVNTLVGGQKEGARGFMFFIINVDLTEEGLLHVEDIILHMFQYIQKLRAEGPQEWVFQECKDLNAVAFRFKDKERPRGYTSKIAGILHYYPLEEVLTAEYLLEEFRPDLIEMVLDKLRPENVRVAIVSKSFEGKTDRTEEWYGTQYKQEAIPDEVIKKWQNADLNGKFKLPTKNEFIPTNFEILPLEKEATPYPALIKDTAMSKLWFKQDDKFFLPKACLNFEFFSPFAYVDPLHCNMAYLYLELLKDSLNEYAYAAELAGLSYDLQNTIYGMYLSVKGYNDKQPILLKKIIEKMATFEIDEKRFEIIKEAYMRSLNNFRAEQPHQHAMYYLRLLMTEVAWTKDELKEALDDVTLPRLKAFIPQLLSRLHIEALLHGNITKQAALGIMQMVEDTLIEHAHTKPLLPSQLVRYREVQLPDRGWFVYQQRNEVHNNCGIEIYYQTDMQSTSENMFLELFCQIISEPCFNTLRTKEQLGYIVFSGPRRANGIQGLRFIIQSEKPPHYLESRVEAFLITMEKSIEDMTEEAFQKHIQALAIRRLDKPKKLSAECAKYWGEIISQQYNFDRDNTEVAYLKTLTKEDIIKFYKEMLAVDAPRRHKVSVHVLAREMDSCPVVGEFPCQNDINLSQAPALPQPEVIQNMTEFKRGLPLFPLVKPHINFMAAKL
# Experiment: fluorogenic peptide hydrolysis by purified IDE, two-site kinetic fit; LC-MS of insulin hydrolysis (about […] decrease)
# Format: biochemical
structure (smiles),measurement,value
"CC(C)C[C@H](NC(=O)[C@H](CCc1ccccc1)NC(=O)CN1CCOCC1)C(=O)N[C@@H](Cc1ccccc1)C(=O)N[C@@H](CC(C)C)C(=O)[C@@]1(C)CO1 [CFZ, Carfilzomib]",Kd,0.13 µM
